Reference: patent US20240116985A1, “STAPLED PEPTIDES AND METHODS THEREOF” (priority 2020, published 2024)
Values after ≈ are worked out from the molar mass of the structure shown. Like-named read-outs stand apart in the source and are kept apart here.

Columns and labels:
Solubility in PBS = type: physicochemical
How it was run: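 PBS sample ultracentrifuged; supernatant run on HPLC vs. 50 μM peptide in DMSO standard. Solubility = (PBS peak area / DMSO peak area) × 50 uM.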

CHI Log D procedure = type: physicochemical; conditions: for CHI Log D: pH 7.4
[1] = molecular target: T1, full-length beta-Catenin (Uniprot ID P35222) (Homo sapiens, UniProt P35222); experiment: Fluorescence polarization IC50 (beta-catenin / 5FAM-TCF4 10-53 competition); type: binding
T1 construct: 10 nM full-length beta-Catenin (Uniprot ID P35222)
T1 sequence (P35222 1-781): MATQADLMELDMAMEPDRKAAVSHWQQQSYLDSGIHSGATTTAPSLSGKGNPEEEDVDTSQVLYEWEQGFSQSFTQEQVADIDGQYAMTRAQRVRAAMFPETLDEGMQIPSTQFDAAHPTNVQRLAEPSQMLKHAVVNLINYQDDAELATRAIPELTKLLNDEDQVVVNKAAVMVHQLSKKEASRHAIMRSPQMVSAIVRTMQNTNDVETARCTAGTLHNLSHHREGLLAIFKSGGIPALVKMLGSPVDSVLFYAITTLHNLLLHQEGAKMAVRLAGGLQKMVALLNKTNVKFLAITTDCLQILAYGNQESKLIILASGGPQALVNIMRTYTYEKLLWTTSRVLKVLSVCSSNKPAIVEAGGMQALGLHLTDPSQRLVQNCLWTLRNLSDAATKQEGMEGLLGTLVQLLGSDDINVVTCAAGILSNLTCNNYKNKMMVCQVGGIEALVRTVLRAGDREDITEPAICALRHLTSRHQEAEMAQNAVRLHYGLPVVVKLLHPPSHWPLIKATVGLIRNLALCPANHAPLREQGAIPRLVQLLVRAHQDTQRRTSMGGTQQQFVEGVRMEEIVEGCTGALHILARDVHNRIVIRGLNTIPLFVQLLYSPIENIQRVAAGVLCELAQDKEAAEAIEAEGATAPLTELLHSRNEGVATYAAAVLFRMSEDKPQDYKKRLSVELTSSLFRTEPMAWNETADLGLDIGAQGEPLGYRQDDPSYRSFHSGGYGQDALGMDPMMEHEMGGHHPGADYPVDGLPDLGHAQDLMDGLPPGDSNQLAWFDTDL

[2] = fluorescence polarization, read-out: beta-Catenin FP IC50
[3] = read-out: beta-Catenin FP IC50, fluorescence polarization

| SMILES | Solubility (Solubility in PBS) [µM] | CHI Log D (CHI Log D procedure) | IC50 [1, 2] [nM] | IC50 ([1]; read-out: FP EC50) [nM] | Solubility (Solubility in PBS; Solubility (uM)) [µM] | chromatographic logD (CHI Log D procedure; pH 7.4, CHI Log D) | IC50 [1, 3] [nM] | chromatographic logD (CHI Log D procedure; pH 7.4, LogD) | IC50 ([1]; read-out: bCat FP IC50) [nM] |
| --- | --- | --- | --- | --- | --- | --- | --- | --- | --- |
| CC[C@@H]1NC(=O)[C@H](CC(=O)O)NC(=O)[C@]2(CC=CCCCC3(CCCC=CCCCCCC[C@@](C)(C(=O)N[C@@H](Cc4ccccc4)C(=O)N[C@@H](Cc4csc5ccccc45)C(=O)N[C@@H](Cc4c[nH]cn4)C(N)=O)NC(=O)[C@H](CC(N)=O)NC(=O)[C@H](Cc4ccccc4)NC(=O)[C@H](C)NC(=O)[C@H](C)NC(=O)[C@H](CC(=O)O)NC(=O)[C@H](CC(=O)O)NC3=O)NC1=O)CCCN2C(C)=O (stereo partly drawn) [I-575, Ac-PL3-Asp-Abu-B5-Asp-Asp-Ala-Ala-Phe-Asn-S8-Phe-BztA-His-NH2] | 46 (≈ 84.5 µg/mL) | 2.21 | 21 | 21 |  |  |  |  |  |
| CC[C@H](C)[C@@H]1NC(=O)[C@H](CC(=O)O)NC(=O)[C@]2(CC=CCCCC3(CCCC=CCCCCCC[C@@](C)(C(=O)N[C@@H](Cc4ccccc4)C(=O)N[C@@H](Cc4csc5ccccc45)C(=O)N[C@@H](Cc4c[nH]cn4)C(N)=O)NC(=O)[C@H](CCC(N)=O)NC(=O)[C@H](Cc4ccccc4)NC(=O)[C@H](C)NC(=O)[C@H](C)NC(=O)[C@H](CC(=O)O)NC(=O)[C@H](CC(=O)O)NC3=O)NC1=O)CCCN2C(C)=O (stereo partly drawn) [I-580, Ac-PL3-Asp-Ile-B5-Asp-Asp-Ala-Ala-Phe-Gln-S8-Phe-BztA-His-NH2] | 24 (≈ 45.1 µg/mL) | 2.436 | 114 | 114 |  |  |  |  |  |
| CC(=O)N1CCC[C@]12CC=CCCCC1(CCCC=CCCCCCC[C@@](C)(C(=O)N[C@@H](Cc3ccccc3)C(=O)N[C@@H](Cc3csc4ccccc34)C(=O)N[C@@H](Cc3c[nH]cn3)C(N)=O)NC(=O)[C@H](CC(N)=O)NC(=O)[C@H](Cc3ccccc3)NC(=O)[C@H](C)NC(=O)[C@H](C)NC(=O)[C@H](CC(=O)O)NC(=O)[C@H](CC(=O)O)NC1=O)NC(=O)[C@H](CCC(C)C)NC(=O)[C@H](CC(=O)O)NC2=O (stereo partly drawn) [I-584, Ac-PL3-Asp-hLeu-B5-Asp-Asp-Ala-Ala-Phe-Asn-S8-Phe-BztA-His-NH2] | 21 (≈ 39.4 µg/mL) | 2.635 | 33 | 33 |  |  |  |  |  |
| CC[C@H](C)[C@@H]1NC(=O)[C@H](CC(=O)O)NC(=O)[C@]2(CC=CCCCC3(CCCC=CCCCCCC[C@@](C)(C(=O)N[C@@H](Cc4ccccc4)C(=O)N[C@@H](Cc4csc5ccccc45)C(=O)N[C@@H](CCC(N)=O)C(N)=O)NC(=O)[C@H](CCC(N)=O)NC(=O)[C@H](Cc4ccccc4)NC(=O)[C@H](C)NC(=O)[C@H](C)NC(=O)[C@H](CCC(=O)O)NC(=O)[C@H](CC(=O)O)NC3=O)NC1=O)CCCN2C(=O)c1cccnc1 (stereo partly drawn) [I-598, Nic-PL3-Asp-Ile-B5-Asp-Glu-Ala-Ala-Phe-Gln-S8-Phe-BztA-Gln-NH2] |  |  | 845 |  | 49 (≈ 95.4 µg/mL) | 2.24 |  |  |  |
| CC[C@H](C)[C@@H]1NC(=O)[C@H](CC(=O)O)NC(=O)[C@]2(CC=CCCCC3(CCCC=CCCCCCC[C@@](C)(C(=O)N[C@@H](Cc4ccccc4)C(=O)N[C@@H](Cc4csc5ccccc45)C(=O)N[C@@H](CCC(N)=O)C(N)=O)NC(=O)[C@H](CCC(N)=O)NC(=O)[C@H](Cc4ccccc4)NC(=O)[C@H](C)NC(=O)[C@H](C)NC(=O)[C@H](CCC(=O)O)NC(=O)[C@H](CC(=O)O)NC3=O)NC1=O)CCCN2C(=O)c1ccccn1 (stereo partly drawn) [I-599, Pic-PL3-Asp-Ile-B5-Asp-Glu-Ala-Ala-Phe-Gln-S8-Phe-BztA-Gln-NH2] |  |  | 138 |  | 45 (≈ 87.6 µg/mL) | 2.42 |  |  |  |
| CC[C@H](C)[C@@H]1NC(=O)[C@H](CC(=O)O)NC(=O)[C@]2(CC=CCCCC3(CCCC=CCCCCCC[C@@](C)(C(=O)N[C@@H](Cc4ccccc4)C(=O)N[C@@H](Cc4csc5ccccc45)C(=O)N[C@@H](CCC(N)=O)C(N)=O)NC(=O)[C@H](CCC(N)=O)NC(=O)[C@H](Cc4ccccc4)NC(=O)[C@H](C)NC(=O)[C@H](C)NC(=O)[C@H](CCC(=O)O)NC(=O)[C@H](CC(=O)O)NC3=O)NC1=O)CCCN2C(=O)Cc1ccccc1 (stereo partly drawn) [I-600, Bnc-PL3-Asp-Ile-B5-Asp-Glu-Ala-Ala-Phe-Gln-S8-Phe-BztA-Gln-NH2] | 47 (≈ 92.1 µg/mL) | 2.694 |  | 796 |  |  | 796 |  |  |
| CC[C@H](C)[C@@H]1NC(=O)[C@H](CC(=O)O)NC(=O)[C@]2(CC=CCCCC3(CCCC=CCCCCCC[C@@](C)(C(=O)N[C@@H](Cc4ccccc4)C(=O)N[C@@H](Cc4csc5ccccc45)C(=O)N[C@@H](CCC(N)=O)C(N)=O)NC(=O)[C@H](CCC(N)=O)NC(=O)[C@H](Cc4ccccc4)NC(=O)[C@H](C)NC(=O)[C@H](C)NC(=O)[C@H](CCC(=O)O)NC(=O)[C@H](CC(=O)O)NC3=O)NC1=O)CCCN2C(=O)Cc1ccccc1 (stereo partly drawn) [I-601, Bnc-PL3-Asp-Ile-B5-Asp-Glu-Ala-Ala-Phe-Gln-S8-Phe-BztA-Gln-NH2] | 43 (≈ 84.2 µg/mL) | 2.748 |  | 419 |  |  | 419 |  |  |
| CC[C@H](C)[C@@H]1NC(=O)[C@H](CC(=O)O)NC(=O)[C@]2(CC=CCCCC3(CCCC=CCCCCCC[C@@](C)(C(=O)N[C@@H](Cc4ccccc4)C(=O)N[C@@H](Cc4csc5ccccc45)C(=O)N[C@@H](CCC(N)=O)C(N)=O)NC(=O)[C@H](CCC(N)=O)NC(=O)[C@H](Cc4ccccc4)NC(=O)[C@H](C)NC(=O)[C@H](C)NC(=O)[C@H](CCC(N)=O)NC(=O)[C@H](CC(=O)O)NC3=O)NC1=O)CCCN2C(C)=O (stereo partly drawn) [I-603, Ac-PL3-Asp-Ile-B5-Asp-Gln-Ala-Ala-Phe-Gln-S8-Phe-BztA-Gln-NH2] | 10 (≈ 18.8 µg/mL) |  | 392 |  |  | 2.62 |  |  |  |
| CC[C@H](C)[C@@H]1NC(=O)[C@H](CC(=O)O)NC(=O)[C@]2(CC=CCCCC3(CCCC=CCCCCCC[C@@](C)(C(=O)N[C@@H](Cc4ccccc4)C(=O)N[C@@H](Cc4csc5ccccc45)C(=O)N[C@@H](CCC(N)=O)C(N)=O)NC(=O)[C@H](CCC(N)=O)NC(=O)[C@H](Cc4ccccc4)NC(=O)[C@H](C)NC(=O)[C@H](C)NC(=O)[C@H](CCCNC(N)=O)NC(=O)[C@H](CC(=O)O)NC3=O)NC1=O)CCCN2C(C)=O (stereo partly drawn) [I-604, Ac-PL3-Asp-Ile-B5-Asp-Cit-Ala-Ala-Phe-Gln-S8-Phe-BztA-Gln-NH2] | 10 (≈ 19.1 µg/mL) | 2.609 | 692 | 692 |  |  |  |  |  |
| CC[C@H](C)[C@@H]1NC(=O)[C@H](CC(=O)O)NC(=O)[C@]2(CC=CCCCC3(CCCC=CCCCCCC[C@@](C)(C(=O)N[C@@H](Cc4ccccc4)C(=O)N[C@@H](Cc4csc5ccccc45)C(=O)N[C@@H](CCC(N)=O)C(N)=O)NC(=O)[C@H](CCC(N)=O)NC(=O)[C@H](Cc4ccccc4)NC(=O)[C@H](C)NC(=O)[C@H](C)NC(=O)[C@H](CCCNC(N)=O)NC(=O)[C@H](CC(=O)O)NC3=O)NC1=O)CCCN2C(C)=O (stereo partly drawn) [I-605, Ac-PL3-Asp-Ile-B5-Asp-Cit-Ala-Ala-Phe-Gln-S8-Phe-BztA-Gln-NH2] | 10 (≈ 19.1 µg/mL) | 2.617 | 632 | 632 |  |  |  |  |  |
| CC[C@H](C)[C@@H]1NC(=O)[C@H](CC(=O)O)NC(=O)[C@]2(CC=CCCCC3(CCCC=CCCCCCC[C@@](C)(C(=O)N[C@@H](Cc4ccccc4)C(=O)N[C@@H](Cc4csc5ccccc45)C(=O)N[C@@H](CCC(N)=O)C(N)=O)NC(=O)[C@H](CCC(N)=O)NC(=O)[C@H](Cc4ccccc4)NC(=O)[C@H](C)NC(=O)[C@H](C)NC(=O)[C@H](Cc4ccc(C(=O)O)cc4)NC(=O)[C@H](CC(=O)O)NC3=O)NC1=O)CCCN2C(C)=O (stereo partly drawn) [I-606, Ac-PL3-Asp-Ile-B5-Asp-4COOHF-Ala-Ala-Phe-Gln-S8-Phe-BztA-Gln-NH2] | 49 (≈ 95.3 µg/mL) | 2.412 | 289 | 289 |  |  |  |  |  |
| CC[C@H](C)[C@@H]1NC(=O)[C@H](CC(=O)O)NC(=O)[C@]2(CC=CCCCC3(CCCC=CCCCCCC[C@@](C)(C(=O)N[C@@H](Cc4ccccc4)C(=O)N[C@@H](Cc4csc5ccccc45)C(=O)N[C@@H](CCC(N)=O)C(N)=O)NC(=O)[C@H](CCC(N)=O)NC(=O)[C@H](Cc4ccccc4)NC(=O)[C@H](C)NC(=O)[C@H](C)NC(=O)[C@H](Cc4ccc(C(=O)O)cc4)NC(=O)[C@H](CC(=O)O)NC3=O)NC1=O)CCCN2C(C)=O (stereo partly drawn) [I-607, Ac-PL3-Asp-Ile-B5-Asp-4COOHF-Ala-Ala-Phe-Gln-S8-Phe-BztA-Gln-NH2] | 48 (≈ 93.4 µg/mL) | 2.416 | 253 | 253 |  |  |  |  |  |
| CC[C@H](C)[C@@H]1NC(=O)[C@H](CC(=O)O)NC(=O)[C@]2(CC=CCCCC3(CCCC=CCCCCCC[C@@](C)(C(=O)N[C@@H](Cc4ccccc4)C(=O)N[C@@H](Cc4csc5ccccc45)C(=O)N[C@@H](CCC(N)=O)C(N)=O)NC(=O)[C@H](CCC(N)=O)NC(=O)[C@H](Cc4ccccc4)NC(=O)[C@H](C)NC(=O)[C@H](C)NC(=O)[C@H](CCCC(=O)O)NC(=O)[C@H](CC(=O)O)NC3=O)NC1=O)CCCN2C(C)=O (stereo partly drawn) [I-612, Ac-PL3-Asp-Ile-B5-Asp-Aad-Ala-Ala-Phe-Gln-S8-Phe-BztA-Gln-NH2] | 49 (≈ 93 µg/mL) |  |  |  | > 25 | 2.41 |  | 2.4 | 64 |
